# Laboratory results published in ChEMBL document CHEMBL3351405, “Novel tricyclic pyrazolopyrimidines as potent and selective GPR119 agonists” (Bioorg Med Chem Lett, 2014).
# pEC50: −log10 of the molar value.
# Key:
# [1] = biological target: T1, Glucose-dependent insulinotropic receptor (Homo sapiens, UniProt Q8TDV5); assay: Agonist activity at human GPR119 overexpressed in CHO cells assessed as increase in cellular cAMP production by HTRF method; format: functional, cell-based
# T1 sequence (Q8TDV5 whole entry): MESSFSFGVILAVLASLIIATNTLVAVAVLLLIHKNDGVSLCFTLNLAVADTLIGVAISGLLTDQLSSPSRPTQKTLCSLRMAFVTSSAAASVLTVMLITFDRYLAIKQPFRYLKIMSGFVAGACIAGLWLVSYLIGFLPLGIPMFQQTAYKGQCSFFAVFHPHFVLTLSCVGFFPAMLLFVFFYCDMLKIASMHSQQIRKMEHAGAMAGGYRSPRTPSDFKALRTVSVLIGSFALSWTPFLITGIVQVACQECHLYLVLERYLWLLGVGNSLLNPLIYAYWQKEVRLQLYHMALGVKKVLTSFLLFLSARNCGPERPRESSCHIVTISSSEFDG
# [2] = biological target: T2, Glucose-dependent insulinotropic receptor (Homo sapiens) (UniProt Q8TDV5); assay: Agonist activity at human GPR119 overexpressed in CHO cells assessed as increase in cellular cAMP production by HTRF method relative to AR231453; format: functional, cell-based
# T2 sequence (whole entry): T1 sequence (Q8TDV5 whole entry)
# [3] = biological target: T3, Glucose-dependent insulinotropic receptor (Mus musculus, UniProt Q7TQP3); assay: Agonist activity at mouse GPR119 overexpressed in CHO cells assessed as increase in cellular cAMP production by HTRF method; format: functional, cell-based
# T3 sequence (Q7TQP3 whole entry): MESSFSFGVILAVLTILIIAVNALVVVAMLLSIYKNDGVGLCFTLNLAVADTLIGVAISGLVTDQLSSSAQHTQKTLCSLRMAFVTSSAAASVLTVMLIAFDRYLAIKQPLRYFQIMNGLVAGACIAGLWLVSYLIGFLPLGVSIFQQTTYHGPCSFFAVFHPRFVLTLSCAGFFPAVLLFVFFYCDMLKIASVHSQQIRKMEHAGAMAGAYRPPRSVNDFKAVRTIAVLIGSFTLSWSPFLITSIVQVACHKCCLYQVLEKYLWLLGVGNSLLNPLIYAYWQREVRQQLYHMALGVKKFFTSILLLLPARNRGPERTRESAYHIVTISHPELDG
# [4] = biological target: T4, Glucose-dependent insulinotropic receptor (Mus musculus) (UniProt Q7TQP3); assay: Agonist activity at mouse GPR119 overexpressed in CHO cells assessed as increase in cellular cAMP production by HTRF method relative to AR231453; format: functional, cell-based
# T4 sequence (whole entry): T3 sequence (Q7TQP3 whole entry)
# [5] = Clearance in human liver microsomes assessed as extraction ratio; format: ADME; settings: read-out: ERH
# Mus musculus [6] = assay: Dose normalized AUC in po dosed Balb/C mouse; format: ADME, organism-based; settings: in vivo
# [7] = Solubility of the compound at pH 6.8; format: physicochemical; settings: buffer
# [8] = Clearance in rat liver microsomes assessed as extraction ratio; format: ADME; settings: read-out: ERH
# [9] = Clearance in mouse liver microsomes assessed as extraction ratio; format: ADME; settings: read-out: ERH
# Mus musculus [10] = assay: Increase in plasma GLP1 level in 16 hrs fasted wild-type C57BL/6J mouse at 10 mg/kg, po administered as single dose 30 mins prior to glucose excursion measured after 2 mins by ELISA relative to vehicle-treated control; format: functional
# Rattus norvegicus [11] = assay: Antidiabetic activity in ZDF fa/fa rat model assessed as reduction in glucose AUC at 3 mg/kg, po qd administered 1 hr prior to glucose bolus after 2 weeks by OGTT relative to vehicle-treated control; format: functional, Zucker; parameters: scale not given: the % may be the effect or the level left
# Rattus norvegicus [12] = assay: Antidiabetic activity in ZDF fa/fa rat model assessed as reduction in glucose AUC at 10 mg/kg, po qd administered 1 hr prior to glucose bolus after 2 weeks by OGTT relative to vehicle-treated control; format: functional, Zucker; parameters: scale not given: the % may be the effect or the level left
# Rattus norvegicus [13] = assay: Antidiabetic activity in ZDF fa/fa rat model assessed as reduction in glucose AUC at 30 mg/kg, po qd administered 1 hr prior to glucose bolus after 2 weeks by OGTT relative to vehicle-treated control; format: functional, Zucker; parameters: scale not given: the % may be the effect or the level left
Structure (SMILES),pEC50 [1],Efficacy [2] [%],pEC50 [3],Efficacy [4] [%],hepatic extraction ratio [5],further results
CCOC(=O)[C@]1(Cc2ccccc2)CCc2cnc3c(-c4ccc(C(F)(F)F)cc4)cnn3c21,7.42,66,–,–,–,–
COC(=O)[C@@]1(Cc2cccc(F)c2)CCc2cnc3c(-c4ccc(C(F)(F)F)cc4)cnn3c21,8.52,92,8.05,81,0.96,–
COC(=O)C1(Cc2ccccc2)OCc2cnc3c(-c4ccc(C(F)(F)F)cc4)cnn3c21 (racemic),7.47,77,7.46,78,0.96,–
COCCN(C)C(=O)[C@@]1(Cc2cccc(F)c2)NCc2cnc3c(-c4ccc(C(F)(F)F)cc4)cnn3c21,8.70,90,–,–,0.9,AUC/dose (Mus musculus [6]): 0.07 µM·h; solubility [7]: < 5 µM
COC(=O)[C@@]1(Cc2cccc(F)c2)NCc2cnc3c(-c4ccc(C(F)(F)F)nc4)c(CO)nn3c21,7.82,101,–,–,0.82,Efficacy ([2]; tested as the 2H-labelled form): 87%; solubility [7]: 99 µM
CCOC(=O)[C@](C)(Cc1ccccc1)c1c(C)cnc2c(-c3ccc(C(F)(F)F)cc3)cnn12,9.00,80,7.96,62,0.3,hepatic extraction ratio [8]: 0.3; hepatic extraction ratio [9]: 0.3; AUC/dose (Mus musculus [6]): 0.6 µM·h
COC(=O)C1(Cc2ccccc2)CCc2cnc3c(-c4ccc(C#N)cc4)cnn3c21 (racemic),8.15,55,–,–,–,–
[2H]C([2H])(O)c1nn2c3c(cnc2c1-c1ccc(C(F)(F)F)cc1)CN[C@]3(Cc1cccc(F)c1)C(=O)OC,8.70,–,–,–,0.83,AUC/dose (Mus musculus [6]): 7.89 µM·h; solubility [7]: 26 µM
Fc1cccc(CC2(C3CC3)NCc3cnc4c(-c5ccc(C(F)(F)F)cc5)cnn4c32)c1 (racemic),7.68,87,–,–,0.6,–
CCOC(=O)C1(Cc2cccc(F)c2)NC(=O)c2cnc3c(-c4ccc(C(F)(F)F)cc4)cnn3c21 (racemic),6.53,81,–,–,–,–
COC(=O)C1(Cc2ccccc2)CCCCc2cnc3c(-c4ccc(C(F)(F)F)cc4)cnn3c21 (racemic),7.13,66,–,–,–,–
CCOC(=O)[C@@]1(Cc2ccccc2)CCCc2cnc3c(-c4ccc(C(F)(F)F)cc4)cnn3c21,8.10,75,7.57,59,0.71,–
CCOC(=O)[C@@]1(Cc2ccccc2)CCc2cnc3c(-c4ccc(C(F)(F)F)cc4)cnn3c21,9.30,85,8.10,80,0.96,hepatic extraction ratio [8]: 0.6; hepatic extraction ratio [9]: 0.6; AUC/dose (Mus musculus [6]): 0.3 µM·h
COC(=O)[C@@]1(Cc2cccc(F)c2)NCc2cnc3c(-c4ccc(C(F)(F)F)cc4)c(CO)nn3c21,8.30,99,–,–,0.82,Efficacy ([2]; tested as the 2H-labelled form): 103%; AUC/dose (Mus musculus [6]): 7.65 µM·h; solubility [7]: 58 µM; Activity (Mus musculus [10]): 29%; Activity (Rattus norvegicus [11]): 1%; Activity (Rattus norvegicus [12]): 11%; Activity (Rattus norvegicus [13]): 37%
COC(=O)C1(Cc2ccccc2)CCc2cnc3c(-c4ccc(S(C)(=O)=O)cc4)cnn3c21 (racemic),6.90,81,–,–,0.89,–
COC(=O)C1(Cc2ccccc2)COc2cnc3c(-c4ccc(C(F)(F)F)cc4)cnn3c21 (racemic),7.96,83,7.82,76,0.88,–
COC(=O)[C@@]1(Cc2cccc(F)c2)NCc2cnc3c(-c4ccc(C(F)(F)F)cc4)c(C(N)=O)nn3c21,7.70,74,–,–,0.92,solubility [7]: 39 µM

Structure (SMILES),pEC50 [1],Efficacy [2] [%],pEC50 [3],Efficacy [4] [%],hepatic extraction ratio [5],further results
CCOC(=O)[C@](C)(Cc1ccccc1)c1cc(C)nc2c(-c3ccc(Cl)cc3)cnn12,< 8.00,15,–,–,–,–
CC1(Cc2cccc(F)c2)NCc2cnc3c(-c4ccc(C(F)(F)F)cc4)cnn3c21 (racemic),6.36,77,–,–,–,–
COC(=O)[C@@]1(Cc2cccc(F)c2)NCc2cnc3c(-c4ccc(C(F)(F)F)cc4)c(C(C)(C)O)nn3c21,6.28,58,–,–,0.51,–
CCOC(=O)[C@@]1(Cc2ccccc2)CCc2cnc3c(-c4ccc(Cl)cc4)cnn3c21,8.52,73,7.96,78,0.79,–
CCOC(=O)[C@](C)(Cc1ccccc1)c1ccnc2c(-c3ccc(C(F)(F)F)cc3)c(C)nn12,7.64,83,7.62,72,–,–
CCOC(=O)C1(Cc2ccccc2)CCc2cnc3c(-c4ccc(Oc5ccccc5)cc4)cnn3c21 (racemic),7.70,60,–,–,–,–
[2H]C([2H])(O)c1nn2c3c(cnc2c1-c1ccc(C(F)(F)F)nc1)CN[C@]3(Cc1cccc(F)c1)C(=O)OC,7.46,–,–,–,0.85,AUC/dose (Mus musculus [6]): 6.56 µM·h; solubility [7]: 83 µM
COC(=O)[C@@]1(Cc2cccc(F)c2)N=Cc2cnc3c(-c4ccc(C(F)(F)F)cc4)cnn3c21,7.14,84,6.87,80,0.97,–
COC(=O)[C@@]1(Cc2cccc(F)c2)NCc2cnc3c(-c4ccc(C(F)(F)F)cc4)cnn3c21,8.52,91,7.85,88,0.95,AUC/dose (Mus musculus [6]): 0.31 µM·h
COC(=O)C1(Cc2ccccc2)CCc2cnc3c(-c4ccc(C(F)(F)F)cc4)cnn3c21 (racemic),8.70,82,7.77,91,0.93,–
CCOC(=O)[C@@]1(Cc2ccccc2)CNc2cnc3c(-c4ccc(C(F)(F)F)cc4)cnn3c21,7.60,75,7.60,80,0.75,–
OCc1nn2c3c(cnc2c1-c1ccc(C(F)(F)F)nc1)CN[C@]3(Cc1cccc(F)c1)C1CC1,8.22,82,–,–,0.93,solubility [7]: 36 µM
OCc1nn2c3c(cnc2c1-c1ccc(C(F)(F)F)cc1)CN[C@]3(Cc1cccc(F)c1)C1CC1,8.70,88,–,–,0.9,solubility [7]: 6 µM
CCOC(=O)C1(Cc2ccccc2)c2c(cnc3c(-c4ccc(C(F)(F)F)cc4)cnn23)CN1C (racemic),6.67,55,–,–,–,–
CCOC(=O)[C@](C)(Cc1ccccc1)c1c(Cl)cnc2c(-c3ccc(C(F)(F)F)cc3)cnn12,8.52,75,8.10,73,–,–
CCOC(=O)C1(Cc2ccccc2)CCCCCc2cnc3c(-c4ccc(C(F)(F)F)cc4)cnn3c21 (racemic),7.00,56,–,–,–,–
